Reference: paper PMC9977398, “Next-generation membrane-active glycopeptide antibiotics that also inhibit bacterial cell division” (Chemical Science, 2023)

Tests used:
B. subtilis = test: Cytoplasmic membrane depolarization assay, DiSC3(5); assay type: cell-based; conditions: exponentially growing B. subtilis, 10 μM
From the text: The membrane disruption properties of both VanQbiph (4) and VanQAmC10 (8) were studied to correlate the extent of membrane perturbation and bactericidal activity against both exponentially growing and non-growing bacterial cells. Their ability to depolarize the membrane was monitored using the fluorescent probe DiSC3(5) (3,3′-dipropylthiadicarbocyanine iodide). DiSC3(5) is sensitive to the membrane potential and as it accumulates in the membrane, the fluorescence intensity decreases due to self-quenching. Upon dissipation of membrane potential, an increase in fluorescence is observed due to DiSC3(5) being dispersed in the solution. […]
were added to it the wells containing bacterial suspension. Fluorescence has monitored at excitation wavelength of 535 nm (slit width: 10 nm) and emission wavelength of 617 nm (slit width: 5 nm). As a measure of inner membrane permeabilization the uptake of PI was monitor by the increase in fluorescence for 30-50 min. […]
Mid log phase MRSA were harvested (3500 rpm, 5 min), washed in 5 mM glucose and 5 mM HEPES buffer (pH 7.2) in 1:1 ratio and resuspended in 5 mM HEPES buffer, 5 mM glucose and 100 mM KCl solution in 1:1:1 ratio. […] The fluorescence was monitored at excitation wavelength of 622 nm and emission wavelength of 670 nm. […] As a measure of membrane depolarization fluorescence was monitor for another 35 min. […]

ΔamiAC MG1655 E. coli = test: Microscopy of ΔamiAC MG1655 E. coli; assay type: cell-based; conditions: sub-inhibitory concentrations: vancomycin 3 μM, VanQAmC10 2 μM (Fig. 5D)
Method: The bacterial amidases help cleave the septum in the final stage of cell division to produce daughter cells.[39] In the absence of amidases, chains of unseparated cells are formed (Fig. 5D). These retain distinct cytoplasmic compartments but share an outer membrane.[39] These cells are known to be hypersensitive to antibiotics and detergents. However, ΔamiAC mutations are resistant to killing by cephalexin.[38] The MIC of VanQAmC10 against the ΔamiAC mutant was reduced to 4 μM, while that of vancomycin was >10 μM. […] This is indicative of impaired cell division. Cell debris due to lysis after compound treatment are also visible. […]
from 10 μg/mL. The bacteria with compounds and untreated control were incubated for 18 h at 37 ̊C under shaking and OD600 was measured.
Microscopy of ΔamiAC MG1655 E. coli
ΔamiAC MG1655 was cultured overnight in LB media at 37 ̊C. […]
MRSA ATCC 33591 was grown to mid-log phase at 37 °C. […] The viable bacteria were then counted after 48 h incubation at 37 °C. […]
Antagonization of antibacterial activity of AAV-qC10 was determined by addition of 500 μM N,N՛-diacetyl–L-Lys–D-Ala–D-Ala or 100 μg/mL of lipoteichoic acid to serial dilutions of the test compound. The MIC was then determined against MRSA by measuring the OD600 18-24 […]
Vancomycin was chosen as control antibiotic for MRSA. The initial MIC values of VanQAmC10, vancomycin were determined against the respective bacteria. […]

| SMILES | time to membrane depolarisation post-treatment (B. subtilis) [min] | morphology of ΔamiAC mutant (ΔamiAC MG1655 E. coli) |
| --- | --- | --- |
| CCCCCCCCCCNC(=O)C[N+](C)(C)CCCNC(=O)C1NC(=O)C2NC(=O)C(NC(=O)C3NC(=O)C(CC(N)=O)NC(=O)C(NC(=O)C(CC(C)C)NC)C(O)c4ccc(c(Cl)c4)Oc4cc3cc(c4OC3OC(CO)C(O)C(O)C3OC3CC(C)(N)C(O)C(C)O3)Oc3ccc(cc3Cl)C2O)c2ccc(O)c(c2)-c2c(O)cc(O)cc21 (stereo not shown) [VanQAmC10 (8)] | ≤ 2 | larger cell phenotypes of variable sizes |
| CN[C@H](CC(C)C)C(=O)N[C@H]1C(=O)N[C@@H](CC(N)=O)C(=O)N[C@H]2C(=O)N[C@H]3C(=O)N[C@H](C(=O)N[C@H](C(=O)O)c4cc(O)cc(O)c4-c4cc3ccc4O)[C@H](O)c3ccc(c(Cl)c3)Oc3cc2cc(c3O[C@@H]2O[C@H](CO)[C@@H](O)[C@H](O)[C@H]2O[C@H]2C[C@](C)(N)[C@H](O)[C@H](C)O2)Oc2ccc(cc2Cl)[C@H]1O [Vancomycin, reference compound] |  | few cells appear larger and bulky while most appear similar to the untreated bacteria |
| CNC(CC(C)C)C(=O)NC1C(=O)NC(CC(N)=O)C(=O)NC2C(=O)NC3C(=O)NC(C(=O)NC(C(=O)NCCC[N+](C)(C)Cc4ccc(-c5ccccc5)cc4)c4cc(O)cc(O)c4-c4cc3ccc4O)C(O)c3ccc(c(Cl)c3)Oc3cc2cc(c3OC2OC(CO)C(O)C(O)C2OC2CC(C)(N)C(O)C(C)O2)Oc2ccc(cc2Cl)C1O (stereo not shown) [VanQbiph (4)] | ≤ 2 |  |
